Reference: ChEMBL document CHEMBL5236624, “Synthesis, Characterization, and Application of Muscarinergic M3 Receptor Ligands Linked to Fluorescent Dyes” (J Med Chem, 2022)
pKi: −log10 of the molar value.

Experiments:
[1] = biological target: T1, Muscarinic acetylcholine receptor M1 (Homo sapiens, UniProt P11229); assay: Displacement of [3H]N-methylscopolamine from human muscarinic M1 receptor expressed in human HEK293T cell membranes by radioligand competition binding based analysis; set-up: species or system Cell membrane
T1 sequence (P11229 whole entry): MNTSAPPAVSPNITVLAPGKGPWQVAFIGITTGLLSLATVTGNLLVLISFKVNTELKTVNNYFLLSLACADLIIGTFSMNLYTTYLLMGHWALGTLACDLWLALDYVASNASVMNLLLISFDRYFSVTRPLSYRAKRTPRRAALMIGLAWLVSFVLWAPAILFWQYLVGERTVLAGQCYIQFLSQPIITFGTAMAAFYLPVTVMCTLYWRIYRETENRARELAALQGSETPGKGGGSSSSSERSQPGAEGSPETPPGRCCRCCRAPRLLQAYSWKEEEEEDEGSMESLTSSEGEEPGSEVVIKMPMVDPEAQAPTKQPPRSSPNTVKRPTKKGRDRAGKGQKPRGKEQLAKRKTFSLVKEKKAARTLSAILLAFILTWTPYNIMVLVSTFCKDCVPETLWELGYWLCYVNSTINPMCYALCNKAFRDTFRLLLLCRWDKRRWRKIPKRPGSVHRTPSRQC

[2] = biological target: T2, Muscarinic acetylcholine receptor M2 (Homo sapiens, UniProt P08172); assay: Displacement of [3H]N-methylscopolamine from human muscarinic M2 receptor expressed in human HEK293T cell membranes by radioligand competition binding based analysis; set-up: species or system Cell membrane
T2 sequence (P08172 whole entry): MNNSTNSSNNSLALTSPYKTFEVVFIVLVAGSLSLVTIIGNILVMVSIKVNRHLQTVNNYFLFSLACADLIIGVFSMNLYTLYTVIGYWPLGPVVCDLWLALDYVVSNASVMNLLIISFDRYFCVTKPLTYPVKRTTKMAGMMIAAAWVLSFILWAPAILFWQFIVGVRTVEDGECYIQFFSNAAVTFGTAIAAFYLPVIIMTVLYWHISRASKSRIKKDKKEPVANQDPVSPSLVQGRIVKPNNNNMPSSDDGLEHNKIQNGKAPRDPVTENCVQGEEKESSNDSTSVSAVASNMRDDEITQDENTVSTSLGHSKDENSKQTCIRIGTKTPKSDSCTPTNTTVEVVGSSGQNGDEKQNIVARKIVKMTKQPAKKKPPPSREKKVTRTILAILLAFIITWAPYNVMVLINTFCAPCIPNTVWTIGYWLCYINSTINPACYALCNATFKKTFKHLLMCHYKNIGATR

[3] = biological target: Muscarinic acetylcholine receptor M3 (Homo sapiens, UniProt P20309); assay: Displacement of [3H]N-methylscopolamine from human muscarinic M3 receptor expressed in human HEK293T cell membranes by radioligand competition binding based analysis; set-up: species or system Cell membrane
[4] = biological target: T3, Muscarinic acetylcholine receptor M4 (Homo sapiens, UniProt P08173); assay: Displacement of [3H]N-methylscopolamine from human muscarinic M4 receptor expressed in human HEK293T cell membranes by radioligand competition binding based analysis; set-up: species or system Cell membrane
T3 sequence (P08173 whole entry): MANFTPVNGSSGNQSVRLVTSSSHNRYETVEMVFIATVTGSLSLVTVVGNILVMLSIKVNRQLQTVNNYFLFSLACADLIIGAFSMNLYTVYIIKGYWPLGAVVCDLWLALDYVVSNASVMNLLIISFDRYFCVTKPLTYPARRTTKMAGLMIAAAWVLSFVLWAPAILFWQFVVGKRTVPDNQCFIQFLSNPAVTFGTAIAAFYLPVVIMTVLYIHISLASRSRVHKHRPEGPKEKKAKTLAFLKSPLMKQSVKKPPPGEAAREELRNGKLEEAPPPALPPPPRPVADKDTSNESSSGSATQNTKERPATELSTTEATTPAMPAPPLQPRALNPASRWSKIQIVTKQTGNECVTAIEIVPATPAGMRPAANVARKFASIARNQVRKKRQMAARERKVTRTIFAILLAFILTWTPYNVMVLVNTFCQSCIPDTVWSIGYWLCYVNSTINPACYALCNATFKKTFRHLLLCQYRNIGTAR

[5] = biological target: T4, Muscarinic acetylcholine receptor M5 (Homo sapiens, UniProt P08912); assay: Displacement of [3H]N-methylscopolamine from human muscarinic M5 receptor expressed in human HEK293T cell membranes by radioligand competition binding based analysis; set-up: species or system Cell membrane
T4 sequence (P08912 whole entry): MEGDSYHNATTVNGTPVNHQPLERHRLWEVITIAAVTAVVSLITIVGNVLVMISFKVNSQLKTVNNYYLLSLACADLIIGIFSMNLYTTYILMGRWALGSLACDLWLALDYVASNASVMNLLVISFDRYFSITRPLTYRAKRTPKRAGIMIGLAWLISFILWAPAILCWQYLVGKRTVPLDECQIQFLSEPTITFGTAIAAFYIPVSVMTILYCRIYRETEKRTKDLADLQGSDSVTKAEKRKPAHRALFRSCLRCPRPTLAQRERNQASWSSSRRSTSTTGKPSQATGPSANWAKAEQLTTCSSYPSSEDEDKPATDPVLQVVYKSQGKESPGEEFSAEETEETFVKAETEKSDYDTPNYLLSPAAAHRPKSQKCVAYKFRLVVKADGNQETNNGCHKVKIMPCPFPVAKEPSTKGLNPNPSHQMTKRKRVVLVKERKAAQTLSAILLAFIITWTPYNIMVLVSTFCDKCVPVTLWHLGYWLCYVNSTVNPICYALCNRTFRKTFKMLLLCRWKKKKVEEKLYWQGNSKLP

Homo sapiens [6] = organism: Homo sapiens; assay: Selectivity ratio, Ki for displacement of [3H]N-methylscopolamine from human muscarinic M4 receptor expressed in human HEK293T cell membranes to Ki for displacement of [3H]N-methylscopolamine from human muscarinic M3 receptor expressed in human HEK293T cell membranes
Homo sapiens [7] = organism: Homo sapiens; assay: Selectivity ratio, Ki for displacement of [3H]N-methylscopolamine from human muscarinic M5 receptor expressed in human HEK293T cell membranes to Ki for displacement of [3H]N-methylscopolamine from human muscarinic M3 receptor expressed in human HEK293T cell membranes

Sequence of Muscarinic acetylcholine receptor M3 (P20309 whole entry): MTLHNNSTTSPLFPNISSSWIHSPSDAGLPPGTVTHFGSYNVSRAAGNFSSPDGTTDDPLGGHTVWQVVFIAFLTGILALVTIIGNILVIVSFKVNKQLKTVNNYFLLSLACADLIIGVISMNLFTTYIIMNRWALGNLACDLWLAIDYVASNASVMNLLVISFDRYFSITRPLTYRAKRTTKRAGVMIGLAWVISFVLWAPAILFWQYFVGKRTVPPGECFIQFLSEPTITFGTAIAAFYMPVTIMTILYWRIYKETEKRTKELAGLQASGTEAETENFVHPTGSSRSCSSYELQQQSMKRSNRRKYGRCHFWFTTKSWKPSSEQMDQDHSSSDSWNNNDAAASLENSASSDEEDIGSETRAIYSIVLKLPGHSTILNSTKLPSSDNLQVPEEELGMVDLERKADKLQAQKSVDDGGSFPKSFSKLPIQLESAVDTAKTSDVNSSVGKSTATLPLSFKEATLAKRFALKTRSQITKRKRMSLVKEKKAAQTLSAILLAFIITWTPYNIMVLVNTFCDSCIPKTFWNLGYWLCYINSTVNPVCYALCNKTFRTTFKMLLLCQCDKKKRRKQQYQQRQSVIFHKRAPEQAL

pKi [1] | pKi [2] | pKi [3] | pKi [4] | pKi [5] | Structure (SMILES) | Selectivity ratio (Homo sapiens [6]) | Selectivity ratio (Homo sapiens [7])
8.89 | 7.89 | 9.11 | – | – | C#CCCCCCN1CCC(COC(=O)Nc2ccc(F)cc2-c2ccc(F)c(Cl)c2)CC1 | – | –
9.37 | 8.85 | 10.09 | – | – | NCCCCCCN1CCC(COC(=O)Nc2ccc(F)cc2-c2ccc(F)c(Cl)c2)CC1 | – | –
9.46 | 9.04 | 9.82 | – | – | NCCCCCCCCN1CCC(COC(=O)Nc2ccc(F)cc2-c2ccc(F)c(Cl)c2)CC1 | – | –
9.47 | 8.77 | 9.55 | – | – | NCCCCCCCCN1CCC(OC(=O)Nc2ccc(F)cc2-c2ccc(F)c(Cl)c2)CC1 | – | –
9.19 | 8.03 | 9.49 | – | – | C#CCCCCCCN1CCC(COC(=O)Nc2ccc(F)cc2-c2ccc(F)c(Cl)c2)CC1 | – | –
8.70 | 7.64 | 8.74 | – | – | C#CCCCCCN1CCC(OC(=O)Nc2ccc(F)cc2-c2ccc(F)c(Cl)c2)CC1 | – | –
9.20 | 8.10 | 9.00 | – | – | C#CCCCCCCN1CCC(OC(=O)Nc2ccc(F)cc2-c2ccc(F)c(Cl)c2)CC1 | – | –
8.72 | 7.55 | 8.59 | – | – | NCCCCCCN1CCC(OC(=O)Nc2ccc(F)cc2-c2ccc(F)c(Cl)c2)CC1 | – | –
8.55 | 7.04 | 8.37 | – | – | O=C(Nc1ccc(F)cc1-c1ccc(F)c(Cl)c1)OC1CCNCC1 | – | –

The remaining lines, values behind:

Structure (SMILES) | pKi [1] | pKi [2] | pKi [3] | pKi [4] | pKi [5] | Selectivity ratio (Homo sapiens [6]) | Selectivity ratio (Homo sapiens [7])
CN(C)c1ccc2c(-c3ccc(-c4cn(CCCCCn5cc(CCCCCN6CCC(OC(=O)Nc7ccc(F)cc7-c7ccc(F)c(Cl)c7)CC6)nn5)nn4)cc3C(=O)[O-])c3ccc(=[N+](C)C)cc-3oc2c1 | 8.39 | 7.59 | 8.17 | 8.48 | 8.01 | 0.49 | 1.4
CN1/C(=C/C=C/C=C/C2=[N+](CCCCCC(=O)NCCCCCCN3CCC(OC(=O)Nc4ccc(F)cc4-c4ccc(F)c(Cl)c4)CC3)c3ccccc3C2(C)C)C(C)(C)c2ccccc21 | 8.57 | 8.23 | 8.57 | 8.27 | 7.40 | 2 | 15
CN1/C(=C/C=C/C=C/C2=[N+](CCCCCC(=O)NCCCCCCCCN3CCC(COC(=O)Nc4ccc(F)cc4-c4ccc(F)c(Cl)c4)CC3)c3ccccc3C2(C)C)C(C)(C)c2ccccc21 | 8.74 | 8.96 | 8.49 | 9.25 | 8.59 | 0.18 | 0.81
CN1/C(=C/C=C/C=C/C2=[N+](CCCCCC(=O)NCCCCCCN3CCC(COC(=O)Nc4ccc(F)cc4-c4ccc(F)c(Cl)c4)CC3)c3ccccc3C2(C)C)C(C)(C)c2ccccc21 | 8.64 | 8.17 | 8.20 | 9.05 | 8.16 | 0.14 | 1.1
CN(C)c1ccc2c(-c3ccc(-c4cn(CCCCCn5cc(CCCCCN6CCC(COC(=O)Nc7ccc(F)cc7-c7ccc(F)c(Cl)c7)CC6)nn5)nn4)cc3C(=O)[O-])c3ccc(=[N+](C)C)cc-3oc2c1 | 8.42 | 7.59 | 8.51 | 8.59 | 7.92 | 0.84 | 3.9
CN(C)c1ccc2c(-c3ccc(-c4cn(CCCCCn5cc(CCCCCCN6CCC(OC(=O)Nc7ccc(F)cc7-c7ccc(F)c(Cl)c7)CC6)nn5)nn4)cc3C(=O)[O-])c3ccc(=[N+](C)C)cc-3oc2c1 | 8.70 | 8.01 | 7.92 | 8.42 | 7.96 | 0.32 | 0.92
CN1/C(=C/C=C/C=C/C2=[N+](CCCCCC(=O)NCCCCCCCCN3CCC(OC(=O)Nc4ccc(F)cc4-c4ccc(F)c(Cl)c4)CC3)c3ccccc3C2(C)C)C(C)(C)c2ccccc21 | 9.00 | 9.21 | – | 9.07 | – | 1.4 | –
CN1/C(=C/C=C/C=C/C2=[N+](CCCCCC(=O)NCCCNCCCCCCN3CCC(COC(=O)Nc4ccc(F)cc4-c4ccc(F)c(Cl)c4)CC3)c3ccccc3C2(C)C)C(C)(C)c2ccccc21 | 8.72 | 8.00 | 8.11 | 8.77 | 7.74 | 0.22 | 2.3
